From publication PMC6213900, “Design, Synthesis, and Cytotoxic Analysis of Novel Hederagenin–Pyrazine Derivatives Based on Partial Least Squares Discriminant Analysis” (International Journal of Molecular Sciences, 2018)
Like-named read-outs stand apart in the source and are kept apart here. Each block holds one molecule with its values, some of them ahead of it.

Legend:
[1] = tested on: A549 (human non-small-cell lung cancer); experiment: MTT cytotoxicity assay, A549; format: cell-based; details: read-out: Half Maximal Inhibitory Concentration (IC50) A549
Method: (§1) The cytotoxicity of hederagenin derivatives in vitro was evaluated on three tumor cell lines (A549: human non-small-cell lung cancer; MCF-7: human mammary cancer; HepG2: human hepatocellular carcinoma) using the 3-(4,5-dimethylthiazol-2-yl)-2,5-diphenyltetrazolium bromide (MTT) assay. In addition, their toxicity evaluations were tested on H9c2 (murine heart myoblast) and MDCK (Madin–Darby canine kidney) cells. MCF-7, A549, HepG2, H9c2, and MDCK cells were obtained from the Chinese Academy of Medical Sciences and Peking Union Medical College. All of the cell lines were maintained in Dulbecco’s modified Eagle medium (DMEM) supplemented with 1% (v/v) penicillin/streptomycin and 10% (v/v) fetal bovine serum (FBS; Thermo Technologies, New York, NY, USA) under a humidified atmosphere containing 5% CO2 at 37 °C. The stock solutions of He derivatives were dissolved in dimethyl sulfoxide (DMSO; Sigma, St. Louis, MO, USA) and added at various concentrations to the cell culture. Cellular morphologies were observed using an inverted fluorescence microscope (Olympus IX71, Tokyo, Japan), a plate reader (BIORAD 550 spectrophotometer, Bio-rad Life Science Development Ltd., Beijing, China), and a Canton 2 flow cytometer (BD, New York, NY, USA). The antitumor activity of these compounds were evaluated on MCF-7, A549, HepG2, MDCK, and H9c2 cell lines using the MTT assay. Cells at a density of 3 × 10^3 cells/well were plated in a 96-multiwell plate in DMEM containing 10% FBS for 24 h at 37 °C with 5% CO2. Then, cells were treated for 72 h with the required concentrations (3.125, 6.25, 12.5, 25, or 50 μM) of the compounds and reference drugs (He and DDP) dissolved with the vehicle DMSO. After that, the culture substrate was replaced with 200 μL of DMEM containing 20 μL of MTT solution at 5 mg/mL and incubated for 4 h. The supernatant was removed and the dissolved formazans precipitated with 120 μL of DMSO. Wells without drugs were used as blanks. A plate reader was used to determine the absorbance at 490 nm. The above steps were repeated three times. The IC50 values were defined as the concentration of the compound which gave 50% growth inhibition, and they were calculated using Graph Pad Prism 5. The inhibition rate was calculated using the following formula, where OD is the optical density:% inhibition = 1 − (Sample group OD/Control group OD) × 100%. (1)

[2] = tested on: MCF-7 (human mammary cancer); experiment: MTT cytotoxicity assay, MCF-7; format: cell-based; details: read-out: Half Maximal Inhibitory Concentration (IC50) MCF-7
Method: as §1

[3] = tested on: HepG2 (human hepatocellular carcinoma); experiment: MTT cytotoxicity assay, HepG2; format: cell-based; details: MTT, 72 h treatment, read-out: Half Maximal Inhibitory Concentration (IC50) HepG2
Method: as §1

[4] = tested on: MDCK (Madin–Darby canine kidney) cells; experiment: MTT toxicity evaluation, MDCK; format: cell-based; details: 72 h treatment, non-tumor cells, read-out: Half Maximal Inhibitory Concentration (IC50) MDCK
Method: as §1

[5] = tested on: H9c2 (murine heart myoblast); experiment: MTT toxicity evaluation, H9c2; format: cell-based; details: non-tumor cells, read-out: Half Maximal Inhibitory Concentration (IC50) H9c2
Method: as §1

[6] = Homo sapiens, A549, 72 h treatment
[7] = Homo sapiens, MCF7, 72 h treatment

Structure (SMILES): Cc1nccnc1C(=O)OC[C@@]1(C)C2CC[C@]3(C)C(CC=C4C5CC(C)(C)CC[C@]5(C(=O)OCCCCCl)CC[C@]43C)[C@@]2(C)CC[C@@H]1O (stereo partly drawn) [Compound 24, ((3S,4R,6aR,6bS,8aS,14bR)-8a-((4-Chlorobutoxy)carbonyl)-3-hydroxy-4,6a,6b,11,11,14b-hexamethyl-1,2,3,4,4a,5,6,6a,6b,7,8,8a,9,10,11,12,12a,14,14a,14b-icosahydropicen-4-yl)methyl 3-methylpyrazine-2-carboxylate]
- IC50 [1, 6]: 22 ± 0.87 µM
- IC50 [2, 7]: 17.9 ± 2.8 µM
- IC50 ([3]; Homo sapiens, HepG2): 6.89 ± 0.21 µM
- IC50 ([4]; Canis lupus familiaris, MDCK): 19.3 ± 1.47 µM
- IC50 ([5]; H9c2, 72 h treatment): 27.9 ± 0.62 µM
- melting point: 106.1 °C

- melting point: 146.8 °C
Structure (SMILES): Cc1nccnc1C(=O)OCCOC(=O)[C@]12CCC(C)(C)CC1C1=CCC3[C@@]4(C)CC[C@H](O)[C@@](C)(CO)C4CC[C@@]3(C)[C@]1(C)CC2 (stereo partly drawn) [Compound 11, 2-(((4aS,6aS,6bR,9R,10S,12aR)-10-Hydroxy-9-(hydroxymethyl)-2,2,6a,6b,9,12a-hexamethyl-1,2,3,4,4a,5,6,6a,6b,7,8,8a,9,10,11,12,12a,12b,13,14b-icosahydropicene-4a-carbonyl)oxy)ethyl-3-methylpyrazine-2-carboxylate]
- IC50 [1, 6]: 14.12 ± 0.01 µM
- IC50 [2, 7]: 27.3 ± 0.57 µM
- IC50 ([3]; Homo sapiens, HepG2): 14.84 ± 0.03 µM
- IC50 ([4]; Canis lupus familiaris, MDCK): 18.64 ± 0.18 µM
- IC50 ([5]; H9c2, 72 h treatment): 14.7 ± 0.16 µM

- melting point: 246.6 °C
Structure (SMILES): CC1(C)CC[C@]2(C(=O)OCCO)CC[C@]3(C)C(=CCC4[C@@]5(C)CC[C@H](O)[C@@](C)(CO)C5CC[C@]43C)C2C1 (stereo partly drawn) [Compound 7, 2-Hydroxyethyl (4aS,6aS,6bR,9R,10S,12aR)-10-hydroxy-9-(hydroxymethyl)-2,2,6a,6b,9,12a-hexamethyl-1,3,4,5,6,6a,6b,7,8,8a,9,10,11,12,12a,12b,13,14b-octadecahydropicene-4a(2H)-carboxylate]
- IC50 [1, 6]: > 30 µM
- IC50 [2, 7]: > 30 µM
- IC50 ([3]; Homo sapiens, HepG2): > 30 µM
- IC50 ([4]; Canis lupus familiaris, MDCK): > 30 µM
- IC50 ([5]; H9c2, 72 h treatment): > 30 µM

Structure (SMILES): N.N.[Cl][Pt][Cl] [DDP, cisplatin, reference compound]
- IC50 ([1]; 72 h treatment): 3.85 ± 0.63 µM
- IC50 ([2]; 72 h treatment): 5.17 ± 0.28 µM
- IC50 [3]: 3.42 ± 0.68 µM
- IC50 [4]: 9.97 ± 1.12 µM
- IC50 ([5]; 72 h treatment): 5.31 ± 0.26 µM

Structure (SMILES): CC1(C)CC[C@]2(C(=O)OCCCCCl)CC[C@]3(C)C(=CCC4[C@@]5(C)CC[C@H](O)[C@@](C)(CO)C5CC[C@]43C)C2C1 (stereo partly drawn) [Compound 20]
- IC50 [1, 6]: > 30 µM
- IC50 [2, 7]: > 30 µM
- IC50 ([3]; Homo sapiens, HepG2): > 30 µM
- IC50 ([4]; Canis lupus familiaris, MDCK): > 30 µM
- IC50 ([5]; H9c2, 72 h treatment): > 30 µM

- melting point: 145.2 °C
Structure (SMILES): Cc1nccnc1C(=O)OCCCCOC(=O)[C@]12CCC(C)(C)CC1C1=CCC3[C@@]4(C)CC[C@H](O)[C@@](C)(CO)C4CC[C@@]3(C)[C@]1(C)CC2 (stereo partly drawn) [Compound 17, 4-(((4aS,6aS,6bR,9R,10S,12aR)-10-Hydroxy-9-(hydroxymethyl)-2,2,6a,6b,9,12a-hexamethyl-1,2,3,4,4a,5,6,6a,6b,7,8,8a,9,10,11,12,12a,12b,13,14b-icosahydropicene-4a-carbonyl)oxy)butyl-3-methylpyrazine-2-carboxylate]
- IC50 [1, 6]: 19.6 ± 0.22 µM
- IC50 [2, 7]: 22.9 ± 0.66 µM
- IC50 ([3]; Homo sapiens, HepG2): 8.15 ± 0.22 µM
- IC50 ([4]; Canis lupus familiaris, MDCK): 20.9 ± 3.03 µM
- IC50 ([5]; H9c2, 72 h treatment): 22.3 ± 0.3 µM

Structure (SMILES): Cc1nc(C)c(C(=O)OC[C@@]2(C)C3CC[C@]4(C)C(CC=C5C6CC(C)(C)CC[C@]6(C(=O)OCCCCCl)CC[C@]54C)[C@@]3(C)CC[C@@H]2O)nc1C (stereo partly drawn) [Compound 26, ((3S,4R,6aR,6bS,8aS,14bR)-8a-((4-Chlorobutoxy)carbonyl)-3-hydroxy-4,6a,6b,11,11,14b-hexamethyl-1,2,3,4,4a,5,6,6a,6b,7,8,8a,9,10,11,12,12a,14,14a,14b-icosahydropicen-4-yl)methyl 3,5,6-trimethylpyrazine-2-carboxylate]
- IC50 [1, 6]: > 30 µM
- IC50 [2, 7]: 18.3 ± 1.16 µM
- IC50 ([3]; Homo sapiens, HepG2): 7.15 ± 0.85 µM
- IC50 ([4]; Canis lupus familiaris, MDCK): > 30 µM
- IC50 ([5]; H9c2, 72 h treatment): > 30 µM
- melting point: 168.1 °C

- melting point: 170.4 °C
Structure (SMILES): Cc1nccnc1COC(=O)[C@]12CCC(C)(C)CC1C1=CCC3[C@@]4(C)CC[C@H](O)[C@@](C)(CO)C4CC[C@@]3(C)[C@]1(C)CC2 (stereo partly drawn) [Compound 4, (3-Methylpyrazin-2-yl)methyl(4aS,6aS,6bR,9R,10S,12aR)-10-hydroxy-9-(hydroxymethyl)-2,2,6a,6b,9,12a-hexamethyl-1,3,4,5,6,6a,6b,7,8,8a,9,10,11,12,12a,12b,13,14b-octadecahydropicene-4a(2H)-carboxylate]
- IC50 [1, 6]: 17.1 ± 1.06 µM
- IC50 [2, 7]: 17.3 ± 0.48 µM
- IC50 ([3]; Homo sapiens, HepG2): 25.5 ± 1.4 µM
- IC50 ([4]; Canis lupus familiaris, MDCK): 26.1 ± 1.02 µM
- IC50 ([5]; H9c2, 72 h treatment): 20.4 ± 2.24 µM

- melting point: 107 °C
Structure (SMILES): Cc1cncc(COC(=O)[C@]23CCC(C)(C)CC2C2=CCC4[C@@]5(C)CC[C@H](O)[C@@](C)(CO)C5CC[C@@]4(C)[C@]2(C)CC3)n1 (stereo partly drawn) [Compound 2, (6-Methylpyrazin-2-yl)methyl(4aS,6aS,6bR,9R,10S,12aR)-10-hydroxy-9-(hydroxymethyl)-2,2,6a,6b,9,12a-hexamethyl-1,3,4,5,6,6a,6b,7,8,8a,9,10,11,12,12a,12b,13,14b-octadecahydropicene-4a(2H)-carboxylate]
- IC50 [1, 6]: 20.6 ± 0.29 µM
- IC50 [2, 7]: 15.8 ± 0.22 µM
- IC50 ([3]; Homo sapiens, HepG2): 27.2 ± 1.82 µM
- IC50 ([4]; Canis lupus familiaris, MDCK): 26.7 ± 1.64 µM
- IC50 ([5]; H9c2, 72 h treatment): 25.1 ± 0.43 µM

Structure (SMILES): CC1(C)CC[C@]2(C(=O)OCCCCCl)CC[C@]3(C)C(=CCC4[C@@]5(C)CC[C@H](O)[C@@](C)(COC(=O)c6cnccn6)C5CC[C@]43C)C2C1 (stereo partly drawn) [Compound 21, ((3S,4R,6aR,6bS,8aS,14bR)-8a-((4-Chlorobutoxy)carbonyl)-3-hydroxy-4,6a,6b,11,11,14b-hexamethyl-1,2,3,4,4a,5,6,6a,6b,7,8,8a,9,10,11,12,12a,14,14a,14b-icosahydropicen-4-yl)methyl-pyrazine-2-carboxylate]
- IC50 [1, 6]: 9.29 ± 0.99 µM
- IC50 [2, 7]: 24.98 ± 0.18 µM
- IC50 ([3]; Homo sapiens, HepG2): 7.99 ± 0.12 µM
- IC50 ([4]; Canis lupus familiaris, MDCK): 14.85 ± 0.06 µM
- IC50 ([5]; H9c2, 72 h treatment): 16.68 ± 0.1 µM
- melting point: 117.1 °C

- melting point: 146.8 °C
Structure (SMILES): CC1(C)CC[C@]2(C(=O)OCc3cnccn3)CC[C@]3(C)C(=CCC4[C@@]5(C)CC[C@H](O)[C@@](C)(CO)C5CC[C@]43C)C2C1 (stereo partly drawn) [Compound 1, Pyrazin-2-ylmethyl(4aS,6aS,6bR,9R,10S,12aR)-10-hydroxy-9-(hydroxymethyl)-2,2,6a,6b,9,12a-hexamethyl-1,3,4,5,6,6a,6b,7,8,8a,9,10,11,12,12a,12b,13,14b-octadecahydropicene-4a(2H)-carboxylate]
- IC50 [1, 6]: 17.6 ± 0.37 µM
- IC50 [2, 7]: 16.05 ± 0.01 µM
- IC50 ([3]; Homo sapiens, HepG2): 18.79 ± 0.04 µM
- IC50 ([4]; Canis lupus familiaris, MDCK): 18.1 ± 0.25 µM
- IC50 ([5]; H9c2, 72 h treatment): 14.7 ± 0.51 µM

- melting point: 128 °C
Structure (SMILES): Cc1cncc(C(=O)OCCCCOC(=O)[C@]23CCC(C)(C)CC2C2=CCC4[C@@]5(C)CC[C@H](O)[C@@](C)(CO)C5CC[C@@]4(C)[C@]2(C)CC3)n1 (stereo partly drawn) [Compound 15, 4-(((4aS,6aS,6bR,9R,10S,12aR)-10-Hydroxy-9-(hydroxymethyl)-2,2,6a,6b,9,12a-hexamethyl-1,2,3,4,4a,5,6,6a,6b,7,8,8a,9,10,11,12,12a,12b,13,14b-icosahydropicene-4a-carbonyl)oxy)butyl-6-methylpyrazine-2-carboxylate]
- IC50 [1, 6]: 17.98 ± 0.04 µM
- IC50 [2, 7]: 19.8 ± 1.27 µM
- IC50 ([3]; Homo sapiens, HepG2): 6.71 ± 0.2 µM
- IC50 ([4]; Canis lupus familiaris, MDCK): 17.1 ± 1.01 µM
- IC50 ([5]; H9c2, 72 h treatment): 17.6 ± 1.85 µM

Structure (SMILES): CC1(C)CC[C@]2(C(=O)O)CC[C@]3(C)C(=CC[C@@H]4[C@@]5(C)CC[C@H](O)[C@@](C)(CO)[C@@H]5CC[C@]43C)[C@@H]2C1 [He, Hederagenin]
- IC50 [1, 6]: > 50 µM
- IC50 [2, 7]: > 50 µM
- IC50 ([3]; Homo sapiens, HepG2): > 50 µM
- IC50 ([4]; Canis lupus familiaris, MDCK): > 50 µM
- IC50 ([5]; H9c2, 72 h treatment): > 50 µM
